Measured values reported in publication PMC8247886, “Getting a Grip on the Undrugged: Targeting β‐Catenin with Fragment‐Based Methods” (Chemmedchem, 2021).
In brackets after ≈: the same amount, converted by molar mass.

Tests used:
β-catenin141–305 [1] = biological target: T1, β-catenin141–305 (Homo sapiens, UniProt P35222); assay: Microscale Thermophoresis (MST) screening and Kd determination; format: binding
T1 construct: Amino acids 141-305 of uniprot ID: P35222; GST (cleaved yes); made in house; host or cells: E. coli BL21 (DE3)
T1 sequence (P35222 141-305): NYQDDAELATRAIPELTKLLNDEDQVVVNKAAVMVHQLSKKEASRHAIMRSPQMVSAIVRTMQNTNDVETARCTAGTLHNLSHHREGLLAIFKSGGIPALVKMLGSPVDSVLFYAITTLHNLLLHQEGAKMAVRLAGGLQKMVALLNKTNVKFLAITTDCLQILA
Procedure: buffer (Tris 25 mM, pH 7.5, NaCl 150 mM) containing 2% DMSO-d6. A stock solution of β-catenin135-663 (12.5 µM) was dialyzed before into Tris 25 mM pH 7.6 NaCl 150 mM and centrifuged at 4° C at 15000 rpm for 20 minutes. Intensity ratios Ilogsy/I1D are derived from scaling of the 1D intensity to the corresponding LOGSY intensity. STD GEMs were acquired with 1.5 µM […]
2.0; and 3.0 seconds for the saturation time build up curves to determine the initial rate constants2.
STD experiments were acquired with on and off resonance saturation at +0.1ppm and -40ppm respectively with 1048 scans each.
Solubility of compounds was determined in NMR buffer at pH 7.5 (see above) by integrating the signal of 250 µM maleic acid as an external standard relative to the integrals of the ligands. If the intended concentrations of 500 µM respective 2000 µM were reached the value is reported as > 500 µM or > 2000 µM. Compound 3 only reached a concentration of 1000 µM according to the QNMR experiment even though 2000 µM was intended, it’s solubility is therefore reported as […]
Microscale Thermophoresis.
Fluorescence labeling of β-catenin141-305 with the NT647 dye was achieved using the Monolith NT.115 Protein Labeling Kit RED-NHS according to the manufacturer’s protocol (NanoTemper Technologies, Munich, Germany). The BCL9 peptide was used as positive control for assay development to achieve a reliably detectable change in the thermophoretic mobility ( ΔFnorm). […]
Final assay conditions were 50 nM NT647 labeled β-catenin141-305 in PBS pH 6.8 supplemented with 100 mM NaNO3, 0.5 mM TCEP and 0.05% Tween-20 at 25° C. Fragment screening detected […]
by MST was carried out as previously described8,9. […] Manual inspection of all MST traces was used to reject non-standard traces stemming from protein aggregation, bleaching, or fluorescence quenching. ΔFnorm values (ΔFnorm=Fhot/Fcold) were calculated and the mean values of the duplicates were compared to the mean values of the DMSO negative control. […] Protein integrity over the entire FBS was monitored by the BCL9 peptide positive control. […]

[2] = Solubility in NMR buffer at pH 7.5 by quantitative NMR (maleic acid external standard); format: physicochemical; conditions: NMR buffer (Tris/NaCl with 2% DMSO-d6), aqueous buffer, kinetic from dmso stock; NMR buffer pH 7.5; intended concentration 500 or 2000 μM; read-out: Solub. pH 7.5
Procedure: buffer (Tris 25 mM, pH 7.5, NaCl 150 mM) containing 2% DMSO-d6. […]
Solubility of compounds was determined in NMR buffer at pH 7.5 (see above) by integrating the
signal of 250 µM maleic acid as an external standard relative to the integrals of the ligands. If the
intended concentrations of 500 µM respective 2000 µM were reached the value is reported as >
500 µM or > 2000 µM. […]

β-catenin141–305 [3] = biological target: T1, β-catenin141–305; assay: 2D 15N NMR (TROSY/HSQC/HMQC) detected binding and Kd titration
Procedure: The construct for expression of β-catenin141-305 (Amino acids 141-305 of uniprot ID: P35222) is based on the previously reported R4 construct1. The plasmid was used to transform E. coli, strain BL21 (DE3) cells (Invitrogen). For protein expression, an overnight culture in LB-medium supplemented ampicillin (100 µg/mL) at 37 °C was prepared and diluted the next day with fresh 2xYT-medium. At OD600 of 0.8 the culture was cooled down to 18 °C and after induction with 0.5 mM IPTG incubated for 20 h. Cell pellets obtained by centrifugation at 5000 rpm were stored at - 20 °C. Cells were solubilized in buffer A (2X Dulbecco’s PBS; 500 mM NaCl; 10 % Glycerol; 0.5 mM TCEP; cOmplete™ Protease Inhibitor Cocktail; pH 7.4) and disrupted by sonication (Sonopuls, Bandelin) on ice. After 30 min the sonicated lysate was clarified by centrifugation (50 min, 13500 rpm, 4 °C). The supernatant was mixed with 20 mL Glutathione Sepharose® 4B resin (GE Healthcare) slurry, washed in lysis buffer, and steered for 3 hours on ice. The beads were spun down, loaded into a XK16 column cartridge and washed with lysis buffer until baseline. The protein was eluted with buffer B (2X Dulbecco’s PBS; 500 mM NaCl; 10 % Glycerol; 0.5 mM TCEP;; pH 7.4) + 25 mM L-Glutathione reduced. After cleavage with 2000 units Human Alpha Thrombin (Enzyme Research Laboratories) at room temperature overnight, the protein was collected in the flow-through fraction of a second GST run (GSTrap HP 5 mL column; GE Healthcare) using buffer B. The flow-through was concentrated by centrifugation using an Amicon© Ultra 15 mL Centrifugal Filter (Merck Millipore) and loaded onto a HiLoad Superdex S75 column (GE Healthcare) equilibrated with 50 mM Tris; 200 mM NaCl; 3 mM DTT; pH 8.
Fractions were analyzed by SDS-PAGE and fractions containing the desired protein were pooled and concentrated with an Amicon© Ultra 15 mL Centrifugal Filter (Merck Millipore). […]
For confirmation of hits obtained from STD-NMR by 2D 15N TROSY NMR4 a Bruker Avance III 600 MHz instrument with a 5 mm cryo-TCI probe and z-gradient was used. The experimental set up (automated sample preparation and transfer into the magnet by a Tecan Freedom Evo pipetting robot and a Bruker Sample Rail system, respectively) was identical. Each sample contained 25 uM 15N labeled β-catenin141-305 25 mM sodium phosphate, 150 mM sodium chloride, 100 mM sodium nitrate, 0.5mM TCEP pH 6.8 in H2O at 25 °C and 8% (v/v) D2O. The protein was incubated with 500 uM fragment in a 2.5 mm NMR tube at 25 °C and a d6DMSO concentration of 1%. Spectra were recorded with 48 transients and 64 data points in the indirect dimension. Manual comparison of the spectrum in the presence of the to be tested fragment with the DMSO reference spectrum reveal either line broadening or chemical shift perturbation of cross peaks. Both effects are indicative for compound binding. All processing and analysis was done with the Topspin 2.1 software (Bruker BioSpin). Further spectral comparisons were performed with the FELIX software package (Felix NMR Inc.) to combine manual with automated analysis5. […]
700MHz spectrometer equipped with a cryogenically cooled 5mm TCI probe. […]
The
WaterLOGSY pulse sequence was used as described before7. Selective water inversion was achieved with a double excitation sculpting element employing water selective Gaussian refocusing pulses (inversion bandwidth of 0.5 ppm, pulse length of 7.5 ms). The number of scans was set to 2048. Sample concentrations were 0.5 mM ligand and 0.25–10 µM β-catenin135-663 in […]

β-catenin141–305 [4] = biological target: T1, β-catenin141–305; assay: Surface Plasmon Resonance (SPR) Kd determination; format: binding; conditions: mean of three independent experiments ± SD; 1:1 steady-state fit
Procedure: Surface Plasmon Resonance (SPR)
A Biacore T200 instrument was used for SPR analysis, β-catenin141-305 was pre-diluted to a concentration of 0.1 mg/mL with 10 mM sodium acetate buffer, pH 5.0 and immobilized at a density of 6000 –7000 response units on flow cell 2 of a Biacore CM5 chip. Carbonic anhydraseII served as a reference protein on flow cell 3 and flow cell 1 was kept blank and used as the reference surface. A mixture of 20 mM Tris, pH 7.5, 150 mM NaCl, 0.5 mM TCEP, 0.005% Tween20, 2 % dimethyl sulfoxide was used as assay buffer. After pre -equilibration of the chip with 10 blank injections, the Kd measurements were performed by injecting a concentration series of analyte (9 concentrations, 1:1 dilutions). BCL9 347-392 served as a positive control. K d values were determined by global fitting of the steady-state response for each of the 9 concentrations to a 1:1 interaction model using the Biacore T200 evaluation software. Each compound was injected three times and […]
average Kd values were calculated from the repeats. The reported data are the mean values of three independent experiments ± standard deviations. […]
Glutamax Supplement (Thermo Fisher Scientific, 35050061) with 10% FCS (GE Healthcare, SH30071.03). Transfections were performed with Lipofectamine LTX Reagent (Thermo Fisher, 15338100) according the manufacturer’s instructions.

β-catenin = biological target: β-catenin; parameters: method as in PMID 11237626; conditions: read-out: binding affinity to β-catenin; cited from earlier work
[5] = 15N NMR titration, single titration, mean of curves of selected cross peaks ± SD, read-out: HSQC Kd

Compound: CC1SCC(=O)Nc2cc(Cl)ccc21 (stereo not shown) [Compound 2]
- Kd (β-catenin141–305 [1]; 50 nM labeled β-catenin141–305, single titration): 820 ± 320 µM
- MST binding signal ΔΔF nom (β-catenin141–305 [1]; 500 μM compound, 1 % DMSO, standard deviation with DMSO 1.8‰): 7.5 ‰
- solubility [2]: > 500 µM

Compound: CN1CC(c2ccccc2)Nc2ccccc2C1=O (stereo not shown) [Compound 3]
- solubility [2]: 1000 µM (≈ 252 µg/mL)
- Kd (β-catenin141–305 [3]; [5]): 1100 ± 255 µM

Compound: CN1C[C@@H](c2ccccc2)Oc2ccccc2C1=O [Compound 4]
- Kd (β-catenin141–305 [4]): > 10000 µM
- solubility [2]: > 2000 µM
- Kd (β-catenin141–305 [3]; [5]): 2260 ± 1260 µM

Compound: CN1C[C@H](c2ccccc2)Oc2ccccc2C1=O [Compound 5]
- Kd (β-catenin141–305 [4]): > 10000 µM
- solubility [2]: > 2000 µM
- Kd (β-catenin141–305 [3]; [5]): > 10000 µM

Compound: CN1C[C@@H](c2cccc(C#N)c2)Oc2ccccc2C1=O [Compound 6]
- Kd (β-catenin141–305 [4]): 1390 ± 46 µM
- solubility [2]: > 2000 µM
- Kd (β-catenin141–305 [3]; [5]): 915 ± 303 µM
- Kd (β-catenin141–305 [3]; titration curve of single cross peak D207, read-out: NMR Kd, cross peak D207): 1010 µM
- Kd (β-catenin141–305 [3]; titration curve of single cross peak G245, read-out: NMR Kd, cross peak G245): 575 µM
- Kd (β-catenin141–305 [3]; titration curve of single cross peak V208, read-out: NMR Kd, cross peak V208): 1160 µM

Compound: CN1C[C@H](c2cccc(C#N)c2)Oc2ccccc2C1=O [Compound 7]
- Kd (β-catenin141–305 [4]): > 10000 µM
- solubility [2]: > 2000 µM
- chemical shift perturbations (CSPs) in 2D 15N NMR (β-catenin141–305 [3]; 500 μM compound): did not show any CSPs
- Kd (β-catenin141–305 [3]; [5]): > 10000 µM

Compound: TCF4: transcription factor, natural binding partner of β-catenin
- Kd (β-catenin): ~0.02 µM
